Assay results: US20040043959A1, “Combination therapies for treating methylthioadenosine phosphorylase deficient cells” (priority 2002, published 2004)

Target: T1, Human MTAP (Homo sapiens, UniProt Q13126)
T1 construct: six-histidine tag (His6) (N); made in house; host or cells: E. coli BL21 DE3
T1 sequence (Q13126 1-283): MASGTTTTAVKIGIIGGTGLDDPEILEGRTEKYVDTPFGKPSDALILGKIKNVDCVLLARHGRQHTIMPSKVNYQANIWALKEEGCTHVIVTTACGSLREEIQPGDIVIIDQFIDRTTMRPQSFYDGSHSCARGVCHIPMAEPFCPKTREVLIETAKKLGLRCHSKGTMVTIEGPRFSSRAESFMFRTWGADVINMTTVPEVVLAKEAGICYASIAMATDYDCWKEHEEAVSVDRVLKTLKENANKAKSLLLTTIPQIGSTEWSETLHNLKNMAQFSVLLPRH
Assay: MTAP substrate assay, coupled spectrophotometric (adenine, xanthine oxidase)
Type: biochemical
Conditions: 2 nM MTAP; for activity at 50 µM: 10 min, read-out: MT-A—50: initial velocity as a percentage of the initial velocity with MTA as substrate; for activity at 50 µM / MT-A—50: initial velocity as a percentage of the initial velocity with MTA as substrate: compound 50 uM, relative to MTA at 50 uM; for MT-A—10: initial velocity as a percentage of the initial velocity with MTA as substrate: compound 10 uM, relative to MTA at 10 uM
Description: An enzymatic assay to determine the activity of MTAP against a given substrate was performed. Human MTAP containing an N-terminal six-histidine tag was expressed in E. coli BL21 DE3 cells. The protein was purified to homogeneity by Ni2+ affinity chromatography. Enzymatic activity was measured using a coupled spectrophotometric assay designed to monitor the reaction product adenine (Savarese, T. M., Crabtree, G. W., and Parks, R. E. Jr., (1980) Biochem. Pharmacol. 30, 189-199). Various concentrations of the indicated 5′-deoxymethylthio adenosine (MTA) or substrate were incubated in assay buffer (40 mM potassium phosphate buffer, 1 mM, and DTT 0.8 units/ml xanthine oxidase coupling enzyme) for 5 minutes at 37° C. The reaction was initiated by the addition of MTAP. The exact concentration of enzyme used varied for each substrate tested and ranged from 2 nM to 500 nM. Activity as a function of enzyme concentration was determined for each substrate tested to ensure that the appropriate enzyme concentration was used. Activity was detected by continuous monitoring of absorbance at 305 nm for 10 minutes (ΔE=15,500 M^−1).
Library compounds (10 and 50 uM) were tested using the assay described above with 2 nM MTAP enzyme. The resultant initial velocities are reported as a percentage of the initial velocity observed when MTA is the substrate. MTA controls, 10 and 50 uM concentrations, were run on each plate alongside the library compounds.

| activity at 50 µM [%] | MT-A—10: initial velocity as a percentage of the initial velocity with MTA as substrate [%] | SMILES | MT-A—50: initial velocity as a percentage of the initial velocity with MTA as substrate [%] |
| --- | --- | --- | --- |
| 5 | 3 | Nc1ccccc1SC[C@H]1O[C@@H](n2cnc3c(N)ncnc32)[C@H](O)[C@@H]1O [2(G)(2), (2R, 3R, 4S, 5S)-2-(6-amino-9H-purin-9-yl)-5-{[(2-amino-phenyl)thio]methyl}tetrahydrofuran-3,4-diol] | – |
| 19 | 20 | Nc1ccc(SC[C@H]2O[C@@H](n3cnc4c(N)ncnc43)[C@H](O)[C@@H]2O)cc1 [2(G)(10), (2R, 3R, 4S, 5S)-2-(6-amino-9H-purin-9-yl)-5-{[(4-aminophenyl)thio]methyl]-tetrahydrofuran-3,4-diol] | – |
| – | 19 | CC(=O)Nc1ccc(SC[C@H]2O[C@@H](n3cnc4c(N)ncnc43)[C@H](O)[C@@H]2O)cc1 [2(G)(13), N-[4-({[(2S, 3S, 4R, 5R)-5-(6-amino-9H-purin-9-yl)-dihydroxytetrahydro-furan-2-yl]methyl}thio)phenyl]acetamide] | 17 |
| 51 | 16 | Nc1ncnc2c1ncn2[C@@H]1O[C@H](CSc2ccc(O)cc2)[C@@H](O)[C@H]1O [2(G)(14), (2R, 3R, 4S, 5S)-2-(6-amino-9H-purin-9-yl)-5-{[(4-hydroxyphenyl)-thio]-methyl}tetrahydrofuran-3,4-diol] | – |
| 60 | 59 | COc1ccc(CSC[C@H]2O[C@@H](n3cnc4c(N)ncnc43)[C@H](O)[C@@H]2O)cc1 [2(G)(16), (2R, 3R, 4S, 5S)-2-(6-amino-9H-purin-9-yl)-5-{[(4-methoxybenzyl)-thio]methyl}tetrahydro-furan-3,4-diol] | – |
| 17 | 21 | Nc1ncnc2c1ncn2[C@@H]1O[C@H](CSc2ccc(Br)cc2)[C@@H](O)[C@H]1O [2(G)(17), (2R, 3R, 4S, 5S)-2-(6-amino-9H-purin-9-yl)-5-{[(4-bromophenyl)-thio]methyl}tetrahydro-furan-3,4-diol] | – |
| 17 | 19 | Nc1ncnc2c1ncn2[C@@H]1O[C@H](CSc2ccc(Cl)cc2)[C@@H](O)[C@H]1O [2(G)(19), (2R, 3R, 4S, 5S)-2-(6-amino-9H-purin-9-yl)-5-{[(4-chlorophenyl)thio]-methyl}tetrahydro-furan-3,4-diol] | – |
| 5 | 7 | COC(=O)c1ccc(SC[C@H]2O[C@@H](n3cnc4c(N)ncnc43)[C@H](O)[C@@H]2O)cc1 [2(G)(20), methyl 4-({[(2S, 3S, 4R, 5R)-5-(6-amino-9H-purin-9-yl)-5-3,4-dihydroxytetrahydro-furan-2-yl]methyl}thio)benzoate] | – |
| 9 | 12 | CC(C)(C)c1ccc(SC[C@H]2O[C@@H](n3cnc4c(N)ncnc43)[C@H](O)[C@@H]2O)cc1 [2(G)(21), (2R, 3R, 4S, 5S)-2-(6-amino-9H-purin-9-yl)-5-{[(4-tert-butylphenyl)thio]methyl}tetrahydrofuran-3,4-diol] | – |
| 31 | 21 | Nc1ncnc2c1ncn2[C@@H]1O[C@H](CSc2ccc(F)cc2)[C@@H](O)[C@H]1O [2(G)(23), (2R, 3R, 4S, 5S)-2-(6-amino-9H-purin-9-yl)-5-{[(4-fluorophenyl)-thio]methyl}tetra-hydrafuran-3,4-diol] | – |
| 30 | 5 | COc1ccc(SC[C@H]2O[C@@H](n3cnc4c(N)ncnc43)[C@H](O)[C@@H]2O)cc1OC [2(G)(25), (2R, 3R, 4S, 5S)-2-(6-amino-9H-purin-9-yl)-5-{[(3,4-dimethoxyphenyl)-thio]methyl}tetrahydro-furan-3,4-diol] | – |

The next lines start with the compound.

| SMILES | activity at 50 µM [%] | MT-A—10: initial velocity as a percentage of the initial velocity with MTA as substrate [%] | MT-A—50: initial velocity as a percentage of the initial velocity with MTA as substrate [%] |
| --- | --- | --- | --- |
| Nc1ncnc2c1ncn2[C@@H]1O[C@H](CSc2ccccc2C2=NCCCN2)[C@@H](O)[C@H]1O [2(G)(1), (2R, 3R, 4S, 5S)-2-(6-amino-9H-purin-9-yl)-5-({[2-(1,4,5,6-tetrahydropyrimidin-2-yl)phenyl]thio}methyl)-tetrahydrofuran-3,4-diol] | 23 | 8 | – |
| Nc1nc(SC[C@H]2O[C@@H](n3cnc4c(N)ncnc43)[C@H](O)[C@@H]2O)c2[nH]cnc2n1 [2(G)(3), (2R, 3R, 4S, 5S)-2-(6-amino-9H-purin-9-yl)-5-{[(2-amino-7H-purin-6-yl)thio]methyl}tetrahydro-furan-3,4-diol] | 45 | 46 | – |
| CCc1cnc(SC[C@H]2O[C@@H](n3cnc4c(N)ncnc43)[C@H](O)[C@@H]2O)[nH]c1=O [2(G)(4), 2-({[(2S, 3S, 4R, 5R)-5-(6-amino-9H-purin-9-yl)-dihydroxytetrahydrofuran-2-yl]methyl}thio)-5-ethylpyrimidin-4(3H)-one] | 49 | 38 | – |
| Cn1nnnc1SC[C@H]1O[C@@H](n2cnc3c(N)ncnc32)[C@H](O)[C@@H]1O [2(G)(6), (2R, 3R, 4S, 5S)-2-(6-amino-9H-purin-9-yl)-5-{[(1-methyl-1H-tetrazol-5-yl)thio]methyl}tetra-hydrofuran-3,4-diol] | 47 | 46 | – |
| CCCSc1ccc2[nH]c(SC[C@H]3O[C@@H](n4cnc5c(N)ncnc54)[C@H](O)[C@@H]3O)nc2c1 [2(G)(7), (2R, 3R, 4S, 5S)-2-(6-amino-9H-purin-9-yl)-5-({[5-(propylthio)-1H-benzimidazol-2-yl]thio}methyl)tetrahydro-furan-3,4-diol] | 0 | 3 | – |
| Nc1ncnc2c1ncn2[C@@H]1O[C@H](CSc2ncccn2)[C@@H](O)[C@H]1O [2(G)(8), (2R, 3R, 4S, 5S)-2-(6-amino-9H-purin-9-yl)-5-[(pyrimidin-2-ylthio)methyl]tetrahydro-furan-3,4-diol] | 59 | 54 | – |
| Nc1nnc(SC[C@H]2O[C@@H](n3cnc4c(N)ncnc43)[C@H](O)[C@@H]2O)s1 [2(G)(9), (2R, 3R, 4S, 5S)-2-(6-amino-9H-purin-9-yl)-5-{[(5-amino-1,3,4-thiadiazol-2-yl)thio]methyl}tetrahydro-furan-3,4-diol] | 47 | 34 | – |
| Nc1ncnc2c1ncn2[C@@H]1O[C@H](CSc2nc3cc(Cl)ccc3s2)[C@@H](O)[C@H]1O [2(G)(11), (2R, 3R, 4S, 5S)-2-(6-amino-9H-purin-9-yl)-5-{[(5-chloro-1,3-benzothiazol-2-yl)thio]methyl}tetrahydro-furan-3,4-diol] | 25 | 22 | – |
| Nc1ncnc2c1ncn2[C@@H]1O[C@H](CSc2nc3ccccc3s2)[C@@H](O)[C@H]1O [2(G)(12), (2R, 3R, 4S, 5S)-2-(6-amino-9H-purin-9-yl)-5-[(1,3-benzothiazol-2-ylthio)methyl]tetrahydro-furan-3,4-diol] | 25 | 24 | – |
| Nc1ncnc2c1ncn2[C@@H]1O[C@H](CSc2ccc3ccccc3c2)[C@@H](O)[C@H]1O [2(G)(15)] | – | 29 | 25 |
| Nc1ncnc2c1ncn2[C@@H]1O[C@H](CSc2cccc3ccccc23)[C@@H](O)[C@H]1O [2(G)(18), (2R, 3R, 4S, 5S)-2-(6-amino-9H-purin-9-yl)-5-[(1-naphthylthio)methyl]tetrahydrofuran-3,4-diol] | 4 | 5 | – |
| Cc1cccc(C)c1SC[C@H]1O[C@@H](n2cnc3c(N)ncnc32)[C@H](O)[C@@H]1O [2(G)(22), (2R, 3R, 4S, 5S)-2-(6-amino-9H-purin-9-yl)-5-{[(2,6-dimethylphenyl)-thio]methyl}tetrahydro-furan-3,4-diol] | 15 | 3 | – |
| COc1ccc(OC)c(SC[C@H]2O[C@@H](n3cnc4c(N)ncnc43)[C@H](O)[C@@H]2O)c1 [2(G)(24), (2R, 3R, 4S, 5S)-2-(6-amino-9H-purin-9-yl)-5-{[(2,5-dimethoxy-phenyl)-thio]methyl}tetrahydrofuran-3,4-diol] | 23 | 4 | – |
